# Laboratory results from US7910559B2, “Decladinosyl-macrolides with anti-inflammatory activity” (GlaxoSmithKline istrazivacki centar Zagreb d.o.o., priority 2005, dated 2011).
# Like-named read-outs stand apart in the source and are kept apart here.
# How the values were obtained:
# Assay type in all cases: cell-based
# human TNF-α = experiment: Inhibition of TNF-α production by stimulated human peripheral blood leukocytes in vitro (ELISA); conditions: Homo sapiens, Leukocyte, PBL, read-out: Percentage of inhibition of TNF-α production; for inhibition at 10 µM: compound 10 μM; for inhibition at 50 µM: compound 50 μM
# Experimental: (§1) Substances, used in in vitro experiments, were dissolved in dimethyl sulfoxide (DMSO) (Kemika, Croatia) at concentrations of 50 mM and 10 mM and were further diluted to the final concentrations of […] in 1 mL Dulbecco's modified Eagle medium (DMEM) supplemented with 1% heat inactivated fetal bovine serum (FBS), 1% glutamax, 50 U/ml penicillin, 50 μg/ml streptomycin and 2.5 μg/mL Fungizone (amphotericin B). Media and all media supplements were purchased from Gibco, Australia, except FBS that was from Sigma, USA.
# (§2) Peripheral blood leukocytes (PBL) were obtained from venous blood of healthy volunteers by sedimentation on 2% dextran T-500 (Amersham Biosciences, USA) and subsequent centrifugations of leukocyte-rich plasma.
# (§3) Peripheral blood leukocytes (PBL), isolated as described above, were seeded in a 48-well plate at a concentration of 3-5×10^6 cell per well in culture medium consisting of RPMI 1640 medium (Institute of Immunology, Croatia) supplemented with 10% heat-inactivated fetal calf serum (FCS, Biowhittaker, USA), 100 U/ml penicillin (Gibco, Australia), 100 μg/ml streptomycin (Gibco, Australia) and 2 mM L-glutamine (Gibco, Australia), and preincubated with the tested compounds for 2 h at 37° C., in an atmosphere of 5% CO2, and 90% humidity. Afterwards, stimuli (Sigma, USA) were added to a final concentration of 2 μg/mL lipopolysaccharide (LPS), 1 μg/mL phorbol 12-myristate 13-acetate (PMA) or 120 μg/mL zymosan. Samples were incubated overnight under conditions described above. At the end of incubation supernatants were transferred to eppendorf tubes and centrifuged for 10 min at 1500 g. Concentrations of human TNF-α, IL-1β, IL-6 and IL-8 were determined in cell supernatants by sandwich ELISA, using capture and detection antibodies (R&D, USA) according to manufacturer's recommendations.
# (§4) Inhibition (as percentage) was calculated using the following formula: % inhibition=(1−concentration of cytokines in sample/concentration of cytokines in positive control)×100 where “positive control” refers to stimulated samples not treated with substances.
# human IL-1β = experiment: Inhibition of IL-1β production by stimulated human peripheral blood leukocytes in vitro (ELISA); conditions: Homo sapiens, Leukocyte, PBL, read-out: Percentage of inhibition of IL-1β production; for inhibition at 10 µM: compound 10 μM; for inhibition at 50 µM: compound 50 μM
# Experimental: as §1, §2, §3, §4
# human IL-6 = experiment: Inhibition of IL-6 production by stimulated human peripheral blood leukocytes in vitro (ELISA); conditions: Homo sapiens, Leukocyte, PBL, read-out: Percentage of inhibition of IL-6 production; for inhibition at 10 µM: compound 10 μM; for inhibition at 50 µM: compound 50 μM
# Experimental: as §1, §2, §3, §4
# human IL-8 = experiment: Inhibition of IL-8 production by stimulated human peripheral blood leukocytes in vitro (ELISA); conditions: Homo sapiens, Leukocyte, PBL, read-out: Percentage of inhibition of IL-8 production; for inhibition at 10 µM: compound 10 μM; for inhibition at 50 µM: compound 50 μM
# Experimental: as §1, §2, §3, §4
# A549 = conditions: human, 24 h
# Experimental: (§5) Anti-inflammatory activity of compounds, i.e. observed inhibition of cytokine production and inhibition of proliferation in vitro, is not a consequence of their cytotoxicity.
# (§6) Measurement of the succinate dehydrogenase activity in living cells was performed in order to assess the cytotoxicity of compounds of the invention. Cells were cultured for 24 hours in RPMI medium as described above at 37° C., in the presence of the tested compounds at concentrations of 50 μM and 12.5 μM. Afterwards, MTT [3-(4,5-dimethylthiazole-2-yl)-2,5-diphenyl tetrazolium bromide] (Promega, USA) as detection reagent was added and incubated for 0.5-2 hours. The amount of produced MTT-Formazan was determined spectrophotometrically at 490 nm (Mosmann, J. Immunol. Methods, 1983, 65: 55-63).
# (§7) Percentage of viable cells was calculated using the following formula: % viable cells=[…]
# Hep G2 = conditions: human, 24 h
# Experimental: as §5, §6, §7
# THP-1 = conditions: human, 24 h
# Experimental: as §5, §6, §7
SMILES,inhibition at 10 µM (human TNF-α; LPS stimulation),inhibition at 50 µM (human TNF-α; LPS stimulation),inhibition at 10 µM (human TNF-α; PMA stimulation),inhibition at 50 µM (human TNF-α; PMA stimulation),inhibition at 10 µM (human TNF-α; zymosan stimulation),inhibition at 50 µM (human TNF-α; zymosan stimulation),inhibition at 10 µM (human IL-1β; LPS stimulation),inhibition at 50 µM (human IL-1β; LPS stimulation),inhibition at 10 µM (human IL-1β; PMA stimulation),inhibition at 50 µM (human IL-1β; PMA stimulation),inhibition at 10 µM (human IL-1β; zymosan stimulation),inhibition at 50 µM (human IL-1β; zymosan stimulation),inhibition at 10 µM (human IL-6; LPS stimulation),inhibition at 50 µM (human IL-6; LPS stimulation),inhibition at 10 µM (human IL-6; PMA stimulation),inhibition at 50 µM (human IL-6; PMA stimulation),inhibition at 10 µM (human IL-6; zymosan stimulation),inhibition at 50 µM (human IL-6; zymosan stimulation),inhibition at 10 µM (human IL-8; LPS stimulation),inhibition at 50 µM (human IL-8; LPS stimulation),other results
"CC[C@H]1OC(=O)[C@H](C)[C@@H](OC(=O)CCN2CCN(CCN(C)C)CC2)[C@H](C)[C@@H](O[C@@H]2O[C@H](C)C[C@H](N(C)C)[C@H]2O)[C@](C)(OC)C[C@@H](C)C(=O)N[C@H](C)[C@@H](O)[C@]1(C)O [Example 19, 6-O-Methyl-3-O-decladinosyl-3-O-{3-[4-(2-Dimethylamino-ethyl)-piperazin-1-yl]-propionyl}-9a-aza-9a-homoerythromycin A]",11%,7%,53%,82%,18%,12%,44%,73%,66%,86%,35%,80%,16%,56%,56%,61%,19%,44%,6%,32%,inhibition at 10 µM (human IL-8; PMA stimulation): 14%; inhibition at 50 µM (human IL-8; PMA stimulation): 0%; inhibition at 10 µM (human IL-8; zymosan stimulation): 9%; inhibition at 50 µM (human IL-8; zymosan stimulation): 26%; Percentage of viable cells after treatment (A549; 12.5 μM): 100%; Percentage of viable cells after treatment (A549; 50 μM): >95%; Percentage of viable cells after treatment (Hep G2; 12.5 μM): 100%; Percentage of viable cells after treatment (Hep G2; 50 μM): 100%; Percentage of viable cells after treatment (THP-1; 12.5 μM): 100%; Percentage of viable cells after treatment (THP-1; 50 μM): 100%
"CC[C@H]1OC(=O)[C@H](C)[C@@H](OC(=O)CCN(C)CCO)[C@H](C)[C@@H](O[C@@H]2O[C@H](C)C[C@H](N(C)C)[C@H]2O)[C@](C)(OC)C[C@@H](C)C(=O)N[C@H](C)[C@@H](O)[C@]1(C)O [Example 23, 6-O-Methyl-3-O-decladinosyl-3-O-{3-[(2-Hydroxy-ethyl)-methyl-amino]-propionyl}-9a-aza-9a-homoerythromycin A]",0%,97%,58%,79%,0%,96%,73%,100%,81%,98%,70%,100%,8%,100%,51%,92%,26%,100%,0%,95%,inhibition at 10 µM (human IL-8; PMA stimulation): 0%; inhibition at 50 µM (human IL-8; PMA stimulation): 90%; inhibition at 10 µM (human IL-8; zymosan stimulation): 0%; inhibition at 50 µM (human IL-8; zymosan stimulation): 98%; Percentage of viable cells after treatment (A549; 12.5 μM): 100%; Percentage of viable cells after treatment (A549; 50 μM): >95%; Percentage of viable cells after treatment (Hep G2; 12.5 μM): 100%; Percentage of viable cells after treatment (Hep G2; 50 μM): 100%; Percentage of viable cells after treatment (THP-1; 12.5 μM): 100%; Percentage of viable cells after treatment (THP-1; 50 μM): 100%
"CC[C@H]1OC(=O)[C@H](C)[C@@H](OC(=O)CCN2CCCN(CCCN3CCCC3)CC2)[C@H](C)[C@@H](O[C@@H]2O[C@H](C)C[C@H](N(C)C)[C@H]2O)[C@](C)(OC)C[C@@H](C)C(=O)N[C@H](C)[C@@H](O)[C@]1(C)O [Example 24, 6-O-Methyl-3-O-decladinosyl-3-O{3-[4-(3-Pyrrolidin-1-yl-propyl)-[1,4]diazepan-1-yl]-propionyl}-9a-aza-9a-homoerythromycin A]",0%,91%,65%,68%,0%,92%,65%,98%,84%,98%,70%,100%,8%,98%,48%,89%,33%,100%,0%,94%,inhibition at 10 µM (human IL-8; PMA stimulation): 3%; inhibition at 50 µM (human IL-8; PMA stimulation): 81%; inhibition at 10 µM (human IL-8; zymosan stimulation): 0%; inhibition at 50 µM (human IL-8; zymosan stimulation): 92%; Percentage of viable cells after treatment (A549; 12.5 μM): >90%; Percentage of viable cells after treatment (A549; 50 μM): >90%; Percentage of viable cells after treatment (Hep G2; 12.5 μM): >95%; Percentage of viable cells after treatment (Hep G2; 50 μM): 100%; Percentage of viable cells after treatment (THP-1; 12.5 μM): 100%; Percentage of viable cells after treatment (THP-1; 50 μM): 100%
